Assay results: patent US6469138B1, “Thrombospondin receptor binding peptides” (Washington University, priority 1993, dated 2002)
Entries after “also recorded” stand apart in the source; their conditions may differ. Values belong to the molecule of their own block, whether it stands above or below them. Where a SMILES comes first, the peptide text is derived from it. Where no end group is shown, it is not given here.

Experiments:
Solubility of peptides = type: physicochemical; conditions: for solubility: insoluble at higher concentrations, read-out: solubility limit
[1] = test system: K562 human erythroleukemia cells; assay: Attachment of K562 cells to immobilized TS1, LM or rCBD; type: cell-based; conditions: protein-coated wells
Procedure: (§1) FIGS. 6A, 6B, 6C and 6D show the attachment of four cell types to immobilized TS-1 and LM. Wells were coated with the indicated concentrations of TS1 (▪) or LM (●). Assays were performed as described under “Methods” hereinafter with (FIG. 6A)—G361 human melanomas; (FIG. 6B)—K562 erythroleukemia cells; (FIG. 6C)—HT1080 fibrosarcomas; and (FIG. 6D)—C32 amelanotic melanomas added to the wells.
(§2) Cell Adhesion Assay—Cell adhesion was performed in 96-well plates by conventional procedures as previously described (Prater et al., 1991; Kosfeld and Frazier, 1992). Synthetic peptides were solubilized with 6 N guanidine HCl (GnHCl) because some hydrophobic peptides were insoluble at concentrations approaching 1 mM in TBS. […] The efficiency of coupling of all peptides was greater than 90% as judged by UV absorbance. […]
(§3) After blocking, cells were allowed to attach for 1 hr at 37° C. to substrate-coated wells or beads. In some tests, inhibition was determined by adding peptide inhibitors of cell attachment to each well along with the cells. After removal of non-adhering cells, cells attached to immobilized substrates were quantitated with endogenous cellular phosphatase activity which is measured by absorption at 410 nm as previously described (Prater et al., 1991). […]

G361 cells [2] = assay: Inhibition by soluble peptides of G361 cell attachment to immobilized rCBD of TS1; type: cell-based, human; conditions: for inhibition of G361 cell attachment to rCBD (in words): soluble peptide inhibitor, immobilized rCBD
Procedure: FIGS. 3A and 3B show the effect of the active subpeptides of C4 and C7 on G361 cell attachment to the rCBD of TS1. To microtiter wells containing immobilized rCBD (10 μg/ml), G361 cells were added with (FIG. 3A) 4N1-1 (●), 7N3-1 (▪), 4N1-1 plus 7N3-1 (▴) and with (FIG. 3B) 4N1 (▪), 7N3 (●) and 4N1 plus 7N3 (▴). The cells were incubated for 1.5 hr in the wells and cell attachment was determined. The effects of these subpeptides on cell attachment are expressed as percent relative to the maximum cell attachment for each test where 100% is the number of cells binding to rCBD-coated well in the absence of peptide inhibitors.
After blocking, cells were allowed to attach for 1 hr at 37° C. to substrate-coated wells or beads. In some tests, inhibition was determined by adding peptide inhibitors of cell attachment to each well along with the cells. After removal of non-adhering cells, cells attached to immobilized substrates were quantitated with endogenous cellular phosphatase activity which is measured by absorption at 410 nm as previously described (Prater et al., 1991). Each assay was carried out in duplicate and each peptide was tested in 3 separate tests at 3 or more different concentrations.
To be sure that the active peptides from C4 and C7 contain the sequences that are relevant for attachment of cells to the CBD, the shorter, more soluble active peptides were tested as soluble inhibitors of the binding of G361 cells to rCBD immobilized on plastic wells. […] In contrast, 4N1-1 and 4N1, the active subpeptides for C4, are insoluble at concentrations higher than 0.2 mM and thus must be tested as soluble inhibitors at concentrations below this solubility limit. It should be noted that inclusion of peptides in the cell attachment assay at these concentrations had no adverse effects on the cells. The results of this complementary bioassay confirmed those of the direct cell adhesion assays (FIGS. 1 and 2). […] The inhibition was dose-dependent at peptide concentrations <0.1 mM for 4N1 and 7N3 and <0.2 mM for 4N1-1 and 7N3-1. […] Each peptide is present at ½ the indicated concentration. In the case of 4N1 plus 7N3, the inhibition was nearly complete (87%). […] To evaluate the contribution of adjacent sequences to activity, peptide 7N2-2 which contained the N-terminal sequence of 7N3-1, and 7N3-1 were examined in inhibition studies.

G361 cells [3] = assay: Direct attachment of G361 cells to peptides adsorbed on microtiter wells (cell adhesion assay); type: cell-based, human; conditions: peptide adsorbed to plastic wells; cells 1 hr at 37° C.; in words
Procedure: Equimolar concentrations of peptides shown in FIG. 1A were evaluated as attachment factors for G361 cells. Peptides C4 (¤), 4N (●), 4N1 (▴), 4N1-1 (♦), 4N2 (▪) and 4C ([formula]) were adsorbed to microtiter plates at the indicated concentrations. Cells were added to the wells and incubated for 1 hour at 37° C. The attached cells were quantitated as described under “Materials and Methods” hereinbelow, and the actual absorbance due to endogenous cellular phosphatase hydrolysis of p-Nitrophenyl phosphate at 410 nm is plotted.
Microtiter wells were adsorbed with peptides C7 (▪), 7N (●), 7N3 (▴), 7N3-1 (♦), 7N2 (▪), 7N2-2 (∘), 7N3-2 (▴) and 7C, 7N1 or 7N2-1 ([formula]) at various concentrations and the attachment of G361 cells was determined. The numbers of cells attached to these peptides were correlated with the cellular phosphatase activity which is expressed as absorbance at 410 nm.
Cell Adhesion Assay—Cell adhesion was performed in 96-well plates by conventional procedures as previously described (Prater et al., 1991; Kosfeld and Frazier, 1992). […] The efficiency of coupling of all peptides was greater than 90% as judged by UV absorbance. […]
After blocking, cells were allowed to attach for 1 hr at 37° C. to substrate-coated wells or beads. In some tests, inhibition was determined by adding peptide inhibitors of cell attachment to each well along with the cells. […]

[4] = test system: HT1080 human fibrosarcomas; assay: Attachment of HT1080 cells to immobilized TS1 or LM; type: cell-based; conditions: protein-coated wells
Procedure: as §1, §2, §3

C32 human melanoma = assay: Attachment of C32 cells to immobilized TS1 or LM; type: cell-based; conditions: protein-coated wells
Procedure: as §1, §2, §3

G361 human melanomas = assay: Attachment of G361 cells to immobilized TS1 or LM; type: cell-based; conditions: protein-coated wells
Procedure: as §1, §2, §3

[5] = molecular target: thrombospondin 1 (TS1) receptor
[6] = molecular target: thrombospondin 1 (TS1) receptor; remark: listed apart in the source
[7] = molecular target: thrombospondin 1 (TS1) receptor; remark: listed apart in the source

solubility (Solubility of peptides): ≤ 200 µM
Molecule: CSCC[C@H](NC(=O)[C@@H](NC(=O)[C@@H](NC(=O)[C@H](Cc1ccc(O)cc1)NC(=O)[C@H](Cc1ccccc1)NC(=O)[C@@H](N)CCCNC(=N)N)C(C)C)C(C)C)C(=O)N[C@@H](Cc1c[nH]c2ccccc12)C(=O)N[C@@H](CCCCN)C(=O)O [4N1-1, Arg-Phe-Tyr-Val-Val-Met-Trp-Lys]

Molecule: rCBD: recombinant COOH-terminal cell binding domain of TS1 expressed in bacteria as protein A-CBD fusion protein
attachment of K562 cells to immobilized protein [1]: bound well

Molecule: RFYVVM [4N1-2]
inhibition of G361 cell attachment to rCBD (in words) (G361 cells [2]): as potent as the longer 4N1-1; also recorded: active | cell attachment activity (direct attachment of G361 cells to immobilized peptide) (G361 cells [3]): little or no activity

Molecule: TS1: thrombospondin 1, extracellular matrix protein
attachment of K562 cells to immobilized protein [1]: much more avidly than to LM | attachment of HT1080 cells to immobilized protein [4]: bound well | attachment of C32 cells to immobilized protein (C32 human melanoma): much more avidly than to LM | attachment of G361 cells to immobilized protein (G361 human melanomas): bound well

Molecule: Gly-Arg-Val-Val-Met (GRVVM)
inhibition of G361 cell attachment to rCBD (in words) (G361 cells [2]): inactive

Molecule: FIRVVMYEGKK [7N3]
inhibition of G361 cell attachment to rCBD-coated surfaces (G361 cells [2]; rCBD 10 μg/ml immobilized, soluble peptide, combinations: each peptide at ½ the indicated concentration): ~50% | cell attachment activity (direct attachment of G361 cells to immobilized peptide) (G361 cells [3]): significant activity

solubility (Solubility of peptides): ≤ 200 µM
Molecule: CSCC[C@H](NC(=O)[C@@H](NC(=O)[C@@H](NC(=O)[C@H](Cc1ccc(O)cc1)NC(=O)[C@H](Cc1ccccc1)NC(=O)[C@@H](N)CCCNC(=N)N)C(C)C)C(C)C)C(=O)N[C@@H](Cc1c[nH]c2ccccc12)C(=O)N[C@@H](CCCCN)C(=O)N[C@@H](CCC(N)=O)C(=O)N[C@H](C(=O)N[C@H](C(=O)N[C@@H](CCC(N)=O)C(=O)N[C@@H](CO)C(=O)O)[C@@H](C)O)C(C)C [4N1, Arg-Phe-Tyr-Val-Val-Met-Trp-Lys-Gln-Val-Thr-Gln-Ser] (H-RFYVVMWKQVTQS-OH; N-terminus and C-terminus assumed)

Molecule: Ile-Arg-Val-Val-Gly (IRVVG)
inhibition of G361 cell attachment to rCBD (in words) (G361 cells [2]): inactive

Molecule: Ile-Glu-Val-Val-Met (IEVVM)
inhibition of G361 cell attachment to rCBD (in words) (G361 cells [2]): inactive

solubility (in words) (Solubility of peptides): highly soluble
Molecule: CC[C@H](C)[C@H](N)C(=O)N[C@@H](CCCNC(=N)N)C(=O)N[C@H](C(=O)N[C@H](C(=O)N[C@@H](CCSC)C(=O)O)C(C)C)C(C)C [7N3-1, Ile-Arg-Val-Val-Met] (H-IRVVM-OH; N-terminus and C-terminus assumed)

inhibition of G361 cell attachment to LM-coated wells (LM receptor): 32 % inhibition | attachment of G361 cells to peptide adsorbed to microtiter wells (absorbance at 410 nm) (% of the maximum activity of 4N1) [5]: 60 | inhibition of G361 cell attachment to rCBD-coated wells [6]: 30 % inhibition | inhibition of K562 cell attachment to immobilised rCBD [7]: 36 % inhibition
B1: 4N1-1 (peptide)
peptide: RFYVVMWK

inhibition of G361 cell attachment to rCBD-coated wells [6]: 50 % inhibition
B2: 7N3 (peptide)
peptide: FIRVVMYEGKK

inhibition of G361 cell attachment to LM-coated wells (LM receptor): 50 % inhibition | inhibition of G361 cell attachment to rCBD-coated wells [6]: 25 % inhibition | inhibition of K562 cell attachment to immobilised rCBD [7]: 28 % inhibition
B3: 7N3-1 (peptide)
peptide: IRVVM

inhibition of G361 cell attachment to rCBD-coated wells [6]: 30 % inhibition
B4: 4N1 (peptide)
peptide: RFYVVMWKQVTQS
